Tests used:
[1] = biological target: T1, CYP1A2 (Homo sapiens, UniProt P05177); test: CYP-direct inhibition, CYP1A2; format: in vitro ADME; conditions: human liver microsome; substrate ethoxy-resorufin; read-out: IC50 CYP-1A2
T1 construct: from tissue; host or cells: pooled human liver microsomes
T1 sequence (P05177 1-516): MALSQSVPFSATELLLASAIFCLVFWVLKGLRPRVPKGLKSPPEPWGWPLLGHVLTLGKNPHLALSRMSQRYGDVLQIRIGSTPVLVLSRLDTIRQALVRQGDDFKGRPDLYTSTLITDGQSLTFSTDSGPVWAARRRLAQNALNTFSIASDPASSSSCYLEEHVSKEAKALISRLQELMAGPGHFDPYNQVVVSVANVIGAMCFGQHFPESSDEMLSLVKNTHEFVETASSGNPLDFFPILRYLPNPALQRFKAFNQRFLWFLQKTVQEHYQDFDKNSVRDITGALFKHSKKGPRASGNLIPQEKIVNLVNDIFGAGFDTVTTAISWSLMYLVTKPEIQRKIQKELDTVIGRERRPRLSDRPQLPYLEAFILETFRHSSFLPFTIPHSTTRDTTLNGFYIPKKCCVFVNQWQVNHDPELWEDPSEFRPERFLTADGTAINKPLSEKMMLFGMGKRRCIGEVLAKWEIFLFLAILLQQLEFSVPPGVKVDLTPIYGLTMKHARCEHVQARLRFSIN
Method: (§1) Many drugs inhibit cytochrome P450 enzymes to cause clinically significant changes in the pharmacokinetics of other drugs. In vitro cytochrome P450 inhibition, can provide crucial information in evaluating potential clinical drug-drug interactions and is useful for focusing in vivo tests to areas of concern. The cytochrome P450 inhibition assay was developed by preparing a working cocktail solution consisting of six probe substrates 10 μM ethoxy-resorufin (CYP1A2), 100 μM rosiglitazone (CYP2C8), 50 μM diclofenac (CYP2C9), 300 μM S-mephenytoin (CYP2C19), 50 μM dextromethorphan (CYP2D6), and 20 μM midazolam (CYP3A4). A mixture solution consists of 140 uL of 0.286 mg/mL of pooled human liver microsome working solution and 20 uL working solutions of test articles, standard control inhibitors, or positive control placebo and 20 uL of substrate cocktail mixture working solution was prepared. The mixture solution was pre-warm in a gentle shaking bath at 37±2° C. for 5 minutes. The enzymatic reaction started by adding 20 uL of NRS working solution to the mixture solution and incubated for 10 minutes at 37±2° C. To stop the reaction, an addition of 400 μL cold stop solution (acetonitrile containing 50 ng/mL Tolbutamide as an internal standard (I.Std.) was added to the mixture solution. The final concentration of test article, inhibitors, substrates, and cofactors are noted in Table 0.1 below. Two individual samples were prepared for each test compound. The extracted samples were vortexed and then centrifuged at 4500 rpm for 7 minutes using Eppendorf Centrifuge 5910R. 200 uL of supernatant was diluting with 200 uL of 50% Methanol into 96-DW plate for LC/MS/MS analysis
(§2) Concentration-response plots are used to determine the effects of an inhibitor on an enzymatic reaction. A typical concentration-response plot provides fractional activity (Y axis) is plotted as a function of log inhibitor concentration (X axis). The data are fitted using a standard Sigmoidal dose-response equation which is also called a […] logistic equation. The concentration of compound that results in 50% inhibition of maximal activity is termed as the IC50 (inhibitor concentration yielding 50% inhibition). IC50 value is calculated using Prism GraphPad software, version 9. […].
(§3) Cytochrome P450 inhibition of a drug is a key factor in determining pharmacokinetic drug-drug interactions. The objective of this study was to evaluate the inhibition potential of G9a inhibitors on six (6) major human cytochrome P450 enzymes, including CYP1A2, CYP2C8, CYP2C9, CYP2C19, CYP2D6, and CYP3A4. Inhibition was determined by using a substrate cocktail and analyzing the rate of specific metabolites formation. The cytochrome P450 inhibition assay was developed using a cocktail consisting of six (6) probe substrates ethoxy-resorufin (CYP1A2), rosiglitazone (CYP2C8), diclofenac (CYP2C9), S-mephenytoin (CYP2C19), dextromethorphan (CYP2D6), and midazolam (CYP3A4). The cocktail was incubated in human liver microsome with NADPH regenerating system (NRS) in a shaking bath at 37±2° C. The formation of specific metabolites was monitored by LC/MS/MS. Test compound was added to the cocktail-liver microsome mixture at varying concentrations and its effect on cytochrome P450 activity was determined by analyzing the rate of specific metabolite formation. The percent inhibition was calculated and plotted with reference to the concentration, and the IC50 value for inhibition was derived by fitting the data with a using log(inhibitor) vs. normalized response with variable slope least squares fit by Graphpad Prism® software. […].

[2] = biological target: T2, CYP2C8 (Homo sapiens, UniProt P10632); test: CYP-direct inhibition, CYP2C8; format: in vitro ADME
T2 construct: from tissue; host or cells: pooled human liver microsomes
T2 sequence (P10632 1-490): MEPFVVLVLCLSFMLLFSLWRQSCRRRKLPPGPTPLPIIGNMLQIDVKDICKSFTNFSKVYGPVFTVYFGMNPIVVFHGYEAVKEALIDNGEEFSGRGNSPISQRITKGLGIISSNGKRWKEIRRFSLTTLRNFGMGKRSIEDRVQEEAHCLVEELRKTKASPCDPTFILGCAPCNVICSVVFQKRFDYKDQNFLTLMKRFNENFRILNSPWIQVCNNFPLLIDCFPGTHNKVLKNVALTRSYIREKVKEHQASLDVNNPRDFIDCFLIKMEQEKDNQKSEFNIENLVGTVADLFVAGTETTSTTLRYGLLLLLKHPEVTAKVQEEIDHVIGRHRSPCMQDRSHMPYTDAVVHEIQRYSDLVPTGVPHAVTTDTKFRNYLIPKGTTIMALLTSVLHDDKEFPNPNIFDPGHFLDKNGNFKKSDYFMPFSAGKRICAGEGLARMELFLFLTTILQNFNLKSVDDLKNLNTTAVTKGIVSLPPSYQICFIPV
Method: as §1, §2, §3

| SMILES | IC50 [1] [µM] | IC50 [2] [µM] |
| --- | --- | --- |
| COc1cc2c(NC3CCS(=O)(=O)CC3)nc(N3CCC(F)(F)CC3)nc2cc1OCCCN1CCCC1 [Compound 1, 4-((2-(4,4-difluoropiperidin-1-yl)-6-methoxy-7-(3-(pyrrolidin-1-yl)propoxy)quinazolin-4-yl)amino)tetrahydro-2H-thiopyran 1,1-dioxide] | > 100 | 89.1 |
| COc1cc2c(NC3CCOCC3)nc(N3CCC(F)(F)CC3)nc2cc1OCCCN1CCCC1 [Compound 2, 2-(4,4-difluoropiperidin-1-yl)-6-methoxy-7-(3-(pyrrolidin-1-yl)propoxy)-N-(tetrahydro-2H-pyran-4-yl)quinazolin-4-amine] | > 100 | 20.4 |
| COCCN1CCC(Nc2nc(N3CCC(F)(F)CC3)nc3cc(OCCCN4CCCC4)c(OC)cc23)CC1 [Compound 3, 2-(4,4-difluoropiperidin-1-yl)-6-methoxy-N-(1-(2-methoxyethyl)piperidin-4-yl)-7-(3-(pyrrolidin-1-yl)propoxy)quinazolin-4-amine] | > 100 | > 100 |
| COCCNc1nc(N2CCC(F)(F)CC2)nc2cc(OCCCN3CCCC3)c(OC)cc12 [Compound 4, 2-(4,4-difluoropiperidin-1-yl)-6-methoxy-N-(2-methoxyethyl)-7-(3-(pyrrolidin-1-yl)propoxy)quinazolin-4-amine] | > 100 | 27.4 |
| COc1cc2c(NCC3CCN(C)CC3)nc(N3CCC(F)(F)CC3)nc2cc1OCCCN1CCCC1 [Compound 5, 2-(4,4-difluoropiperidin-1-yl)-6-methoxy-N-((1-methylpiperidin-4-yl)methyl)-7-(3-(pyrrolidin-1-yl)propoxy)quinazolin-4-amine] | > 100 | > 100 |
| COc1cc2c(Nc3ccncc3)nc(N3CCC(F)(F)CC3)nc2cc1OCCCN1CCCC1 [Compound 7, 2-(4,4-difluoropiperidin-1-yl)-6-methoxy-N-(pyridin-4-yl)-7-(3-(pyrrolidin-1-yl)propoxy)quinazolin-4-amine] | > 100 | 75.7 |
| COc1cc2c(NC3CCNCC3)nc(N3CCC(F)(F)CC3)nc2cc1OCCCN1CCCC1 [Compound 8, 2-(4,4-difluoropiperidin-1-yl)-6-methoxy-N-(piperidin-4-yl)-7-(3-(pyrrolidin-1-yl)propoxy)quinazolin-4-amine] | > 100 | > 100 |
| COc1cc2c(NCC(N)=O)nc(N3CCC(F)(F)CC3)nc2cc1OCCCN1CCCC1 [Compound 9, 2-((2-(4,4-difluoropiperidin-1-yl)-6-methoxy-7-(3-(pyrrolidin-1-yl)propoxy)quinazolin-4-yl)amino)acetamide] | > 100 | > 100 |
| COc1cc2c(NC3COC3)nc(N3CCC(F)(F)CC3)nc2cc1OCCCN1CCCC1 [Compound 11, 2-(4,4-difluoropiperidin-1-yl)-6-methoxy-N-(oxetan-3-yl)-7-(3-(pyrrolidin-1-yl)propoxy)quinazolin-4-amine] | > 100 | 16 |
| COc1cc2c(NC3CCS(=O)(=O)CC3)nc(N3CCCC3)nc2cc1OCCCN1CCCC1 [Compound 80, 4-((6-methoxy-2-(pyrrolidin-1-yl)-7-(3-(pyrrolidin-1-yl)propoxy)quinazolin-4-yl)amino)tetrahydro-2H-thiopyran 1,1-dioxide] | > 100 | 23.4 |

Results, then the compound that gave them:

| IC50 [1] [µM] | IC50 [2] [µM] | SMILES |
| --- | --- | --- |
| > 100 | 60.6 | COc1cc2c(NC3CCS(=O)(=O)CC3)nc(N3CCOCC3)nc2cc1OCCCN1CCCC1 [Compound 102, 4-((6-methoxy-2-morpholino-7-(3-(pyrrolidin-1-yl)propoxy)quinazolin-4-yl)amino)tetrahydro-2H-thiopyran 1,1-dioxide] |
| > 100 | > 100 | COc1cc2c(NC3CCS(=O)(=O)CC3)nc(N3CCS(=O)(=O)CC3)nc2cc1OCCCN1CCCC1 [Compound 103, 4-(4-((1,1-dioxidotetrahydro-2H-thiopyran-4-yl)amino)-6-methoxy-7-(3-(pyrrolidin-1-yl)propoxy)quinazolin-2-yl)thiomorpholine 1,1-dioxide] |
| > 100 | > 100 | COc1cc2c(NC3CCS(=O)(=O)CC3)nc(N3CCN(C)CC3)nc2cc1OCCCN1CCCC1 [Compound 109, 4-((6-methoxy-2-(4-methylpiperazin-1-yl)-7-(3-(pyrrolidin-1-yl)propoxy)quinazolin-4-yl)amino)tetrahydro-2H-thiopyran 1,1-dioxide] |
| > 100 | > 100 | COc1cc2c(NC3CCS(=O)(=O)CC3)nc(N3CCCN(C)CC3)nc2cc1OCCCN1CCCC1 [Compound 110, 4-((6-methoxy-2-(4-methyl-1,4-diazepan-1-yl)-7-(3-(pyrrolidin-1-yl)propoxy)quinazolin-4-yl)amino)tetrahydro-2H-thiopyran 1,1-dioxide] |
| 10.4 | 4.66 | COc1cc2c(Nc3ccncc3)nc(-n3ccnc3)nc2cc1OCCCN1CCCC1 [Compound 130, 2-(1H-imidazol-1-yl)-6-methoxy-N-(pyridin-4-yl)-7-(3-(pyrrolidin-1-yl)propoxy)quinazolin-4-amine] |
| > 100 | > 100 | COc1cc2c(NC3CCN(C(C)C)CC3)nc(-n3ccnc3)nc2cc1OCCCN1CCCC1 [Compound 156, 2-(1H-imidazol-1-yl)-N-(1-isopropylpiperidin-4-yl)-6-methoxy-7-(3-(pyrrolidin-1-yl)propoxy)quinazolin-4-amine] |
| > 100 | > 100 | COc1cc2c(NC3CCN(C(C)C)CC3)nc(-n3cccn3)nc2cc1OCCCN1CCCC1 [Compound 157, N-(1-isopropylpiperidin-4-yl)-6-methoxy-2-(1H-pyrazol-1-yl)-7-(3-(pyrrolidin-1-yl)propoxy)quinazolin-4-amine] |
| > 100 | > 100 | COc1cc2c(N[C@H]3CCCNC3)nc(N3CCCC3)nc2cc1OCCCN1CCCC1 [Compound 158, (S)-6-methoxy-N-(piperidin-3-yl)-2-(pyrrolidin-1-yl)-7-(3-(pyrrolidin-1-yl)propoxy)quinazolin-4-amine] |
| > 100 | > 100 | COc1cc2c(N[C@@H]3CCCNC3)nc(N3CCCC3)nc2cc1OCCCN1CCCC1 [Compound 159, (R)-6-methoxy-N-(piperidin-3-yl)-2-(pyrrolidin-1-yl)-7-(3-(pyrrolidin-1-yl)propoxy)quinazolin-4-amine] |

Reference: US11485728B2, “Small molecules for the treatment of autoimmune diseases and cancer” (Athos Therapeutics, Inc., priority 2020, dated 2022)
